Tests used:
Type in all cases: in vivo
[1] = test system: aged ovariectomized (OVX) rats; assay: Monotherapy in aged ovariectomized (OVX) rats: twice-weekly treatment, BMD by DEXA and serum calcium
Procedure: Eleven months after OVX, rats were treated twice per week with phosphate-buffered saline (PBS, vehicle) or with APD (0.5 mg/kg) or with PTH-(1-34)-Fc (50 nmol/kg). DEXA was performed weekly. Blood was drawn 24 hours after the second weekly injection, when the calcemic effects of PTH-Fc are typically maximal. The effects of PTH-Fc administration on lumbar BMD (FIG. 11A), tibia/femur BMD (FIG. 11B), femoral metaphysis BMD (FIG. 11C), and serum calcium (FIG. 11D) were determined.
Sprague Dawley rats were OVX'd at 3 months of age and allowed to lose bone for 11 months. Other rats were sham-operated and treated twice per week with vehicle (PBS). OVX rats were treated twice per week with SC injections of either vehicle or the bisphosphonate APD (pamidronate, 0.5 mg/kg), or with PTH-(1-34)-Fc (50 nmol/kg) or with APD+PTH-(1-34)-Fc. BMD was determined weekly via dual energy X-ray absorptiometry (DEXA). Rats were sacrificed after 4 weeks of treatment. At the start of treatment, OVX rats had significant reductions in BMD at all skeletal sites analyzed, compared to vehicle-treated […] (FIG. 11, p<0.05, 2-way ANOVA).

mice [2] = assay: Mouse bioassay: SC injection days 0, 5, 10; clinical chemistry (calcium, AP, TRAP) and tibial pQCT
Procedure: Peripheral blood was obtained daily for 3 days following single subcutaneous injections of the indicated compounds.
Peripheral quantitative computed tomography (pQCT) was performed on the proximal tibial metaphysis of mice on day 15, after injections of PTH constructs on day 0, 5 and 10.
We then tested the effects of PTH-(1-34), PTH-(1-34)-Fc, PTH-(1-31)-Fc and PTH-(1-30)-Fc in mice. Four week old male mice were injected on days 0, 5, and 10 with vehicle or with PTH fragments, by SC injection. Peripheral blood was obtained for clinical chemistry at 24, 48, and 72 h. Mice were killed on day 15, vertebrae, tibiae and femurs were harvested for histology and one tibia was collected for bone density measurements (peripheral quantitative computed tomography, pQCT). Clinical chemistry endpoints included total serum calcium, serum alkaline phosphatase (AP, a marker of osteoblast activity), and serum tartrate-resistant acid phosphatase (TRAP, a marker of osteoclast activity). For each animal, the ratio of AP:TRAP was calculated as an index of relative osteoblast activity compared to osteoclast activity. A higher AP:TRAP ratio would indicate a potentially more anabolic agent.

mice [3] = assay: Chronic hypercalcemia induced by PTH-(1-34)-Fc challenge, antagonist given SC; settings: 30 mg/kg single SC, 24 h post challenge, vehicle-treated normal mice (normal control 1.35); the values are: blood ionized calcium
Procedure: Normal male mice were challenged once by SC injection with PTH-(1-34)-Fc (30 mg/kg) (open circles), or with vehicle (PBS, open squares). Some PTH-(1-34)-Fc-challenged mice were treated once, at the time of challenge, with [Asn10,Leu11]PTHrP-(7-34)-Fc at 10 (closed triangle), 30 (closed circle), or 100 mg/kg (closed square). […] Data represent means±SEM, n=5 mice/group.
In order to test the ability of [Asn10,Leu11]PTHrP-(7-34)-Fc to antagonize more chronic hypercalcemia, we used PTH-(1-34)-Fc as a long-acting calcemic agent. This study also represents a model for primary and secondary hyperparathyroidism, diseases which are characterized by persistent elevation of PTH levels. In vehicle-treated mice, a single SC injection of PTH-(1-34)-Fc (30 mg/kg) caused a robust hypercalcemic response in normal mice, reaching a level of 2.75 mg/dl at 24 h post challenge (vs. normal control value of 1.35).

OVX cynomolgus monkeys = assay: Single subcutaneous injection into OVX cynomolgus monkeys, serum total calcium
Procedure: Monkeys were injected with PTH-(1-34)-Fc at doses of 1-30 μg/kg (n=1/group) or 100-1000 μg/kg (n=2/group). Serum was analyzed for total calcium. The dotted line indicates the threshold for hypercalcemia, based on an elevation of calcium greater than three standard deviations above the normal mean, on two or more consecutive timepoints.
The optimal dosing of primates may be less frequent compared to rats or mice. Weekly (or less frequent) dosing may be optimal in primates, based on the observation that the hypercalcemic response of OVX cynomolgus monkeys to a single subcutaneous injection of PTH-(1-34)-Fc (10-34 nmol/kg) persisted for about 168 hours (FIG. 11).

Sprague Dawley (SD) rats = assay: Anabolic assay: lumbar (L3) BMD by DEXA, PTH constructs with or without OPG-Fc; settings: 6-month-old male SD rats, DEXA Day 7; OPG-Fc 1 mg/kg once; PTH-(1-34) 20 nMoles/kg x3; PTH-(1-34)-Fc 60 nMoles/kg once
Procedure: Briefly, 6-month-old male Sprague Dawley (SD) rats were divided into groups of 6. Baseline bone mineral density (BMD) was determined in the third lumbar vertebra (L3) of all rats by dual-energy X-ray absorptiometry (DEXA) (Day 0). Rats were then treated according to the following schedule:
Group 1: Vehicle controls (PBS, injected SC, Days 1, 3, and 5)
Group 2: OPG-Fc, single SC injection (1 mg/kg) on Day 1
Group 3: PTH-(1-34), SC injections on Days 1, 3, and 5, at 20 nMoles PTH/kg/injection. This represents an optimal anabolic PTH regimen.
Group 4: Same as group 3, but with a single OPG-Fc injection on Day 1.
Group 5: Single SC injection of PTH-(1-34)-Fc at 60 nMoles/kg, on Day 1. This represents a molar dose which is equivalent to the total dose of PTH-(1-34) received by group 3, but in a single injection.
Group 6: Same as group 5, but with a single OPG-Fc injection (SC, 1 mg/kg) on Day 1.
DEXA of the lumbar spine was performed again on Day 7 to evaluate changes in BMD. […] The anabolic effect of a single treatment with PTH-(1-34)-Fc plus OPG-Fc was greater than that induced by multiple injections of PTH-(1-34), with or without OPG-Fc co-treatment.
Normal 6 month old male rats were treated with PTH-Fc or PTH or vehicle by a single SC injection. Some rats also received a single SC injection of OPG. BMD was determined 7 days later by DEXA. Data represent means+SD, N=6 rats/group.

## PTH-(1-34)-Fc: human PTH-(1-34), SVSEIQLMHNLGKHLNSMERVEWLRKKLQDVHNF, linked at its C-terminus to an Fc domain
[1]; 50 nmol/kg twice per week, alone
  calcemic response: mild and transient hypercalcemic response
[1]; PTH-(1-34)-Fc 50 nmol/kg twice per week, alone or with APD 0.5 mg/kg, p<0.05
  BMD at the femoral metaphysis: significant increase in BMD
[1]; despite continued treatments
  day after which hypercalcemic response resolved spontaneously: > 10 days
[1]; twice weekly dosing
  reversal of bone loss induced by one year of estrogen ablation: more than 50%
[1]; twice-weekly treatment
  duration of treatment at which BMD increase at the femoral metaphysis was significant: 4 weeks
Mice [2]; 300 nmoles/kg
  calculated AP:TRAP ratio: increased over time
Mice [2]; 300 nmoles/kg (given for PTH-(1-34)-Fc), 72 h
  serum AP (osteoblast marker): significantly elevated
Mice [2]; 300 nmoles/kg SC
  time of peak serum calcium: 24 h
Mice [2]; 300 nmoles/kg SC (equimolar), 24, 48, 72 h
  serum calcium: dramatic and sustained increase
Mice [2]; 300 nmoles/kg on day 0, 5, 10, pQCT day 15
  bone mineral density (proximal tibial metaphysis): no effect
Mice [2]; mice, after single SC injection
  serum TRAP (osteoclast marker): not significantly changed
Mice [3]
  level reached in hypercalcemic response: 2.75 mM
OVX cynomolgus monkeys; primates, inferred from calcemic response
  time within which a single subcutaneous dose is cleared: ≤ 1 week
OVX cynomolgus monkeys; single subcutaneous injection 10-34 nmol/kg
  persistence of hypercalcemic response: about 168 hours
Sprague Dawley (SD) rats
  BMD in L3 compared to PBS-treated rats: failed to increase BMD
